We go through 49 compounds from patent US12428415B2, “Matriptase 2 inhibitors and uses thereof” (Disc Medicine, Inc., priority 2018, dated 2025).

The assay concerns the target T1, Human Recombinant Matriptase 2 (Homo sapiens, UniProt Q8IU80).
T1 construct: purchased Enzo Life Sciences (an in-house preparation was also used) ALX-201-752-1
T1 sequence (Q8IU80 1-811): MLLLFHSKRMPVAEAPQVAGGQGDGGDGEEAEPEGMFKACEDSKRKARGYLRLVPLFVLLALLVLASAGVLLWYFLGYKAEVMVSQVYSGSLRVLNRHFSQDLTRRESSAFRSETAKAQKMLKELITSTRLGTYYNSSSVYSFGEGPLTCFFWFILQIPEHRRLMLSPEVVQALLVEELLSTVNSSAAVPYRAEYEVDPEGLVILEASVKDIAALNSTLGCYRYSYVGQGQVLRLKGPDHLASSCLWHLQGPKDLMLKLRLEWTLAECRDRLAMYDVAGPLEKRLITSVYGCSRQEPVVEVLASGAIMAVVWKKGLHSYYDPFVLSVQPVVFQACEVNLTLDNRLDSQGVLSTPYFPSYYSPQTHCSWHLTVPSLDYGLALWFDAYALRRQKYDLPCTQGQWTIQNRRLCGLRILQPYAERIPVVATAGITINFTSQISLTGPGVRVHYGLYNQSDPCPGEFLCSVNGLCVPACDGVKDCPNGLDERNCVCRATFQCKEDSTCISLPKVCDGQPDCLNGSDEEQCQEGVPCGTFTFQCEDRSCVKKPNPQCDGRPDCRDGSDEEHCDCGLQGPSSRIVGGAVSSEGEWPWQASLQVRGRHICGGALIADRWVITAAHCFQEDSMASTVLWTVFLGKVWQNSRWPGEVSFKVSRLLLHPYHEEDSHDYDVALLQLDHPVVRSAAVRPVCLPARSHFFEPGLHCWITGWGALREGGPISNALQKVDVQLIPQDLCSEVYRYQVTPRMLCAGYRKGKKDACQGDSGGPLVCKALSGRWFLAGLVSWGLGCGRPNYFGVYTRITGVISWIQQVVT
Briefly: Matriptase 2 fluorescence based inhibition assay, Method B (50 mM TRIS pH 7.5, 150 mM NaCl, 0.01% gelatin). In kind it is biochemical. The note with it: 1 uM compound, Assay Used = B; for inhibition at 1 µM: read-out: Mar-2 % inhibition at 1 uM. How it is done:
Test compounds were evaluated for their potential to inhibit Human Recombinant Matriptase 2 (in-house and commercial protein from Enzo Life Sciences—cat log -ALX-201-752-1) using fluorescence based assay. The concentration of Recombinant Matriptase 2 and the substrate used in the assay was: 7 nM (commercial) and 15 nM (Inhouse Matriptase 2) and 100 μM (Boc-Gln-Ala-Arg-7-amido-4-methyl coumarin hydrobromide—Cat log: B4153-Sigma and I-1550 from Bachem) respectively. The assay buffer used was 50 mM TRIS pH 7.5, 150 mM NaCl, 0.01% gelatin (G1393 Sigma). The assay was performed using 384 well black flat bottom plate from grenier (Cat log: 781076) at 25° C. The enzyme and compound preincubated for 30 mins, plate was read 60 mins after substrate addition at wavelength Ex: 360/Em:480 nm. The final assay volume of was 20 μl. Stock solution of compounds were initially prepared in DMSO and appropriate dilutions were made for screening and IC50 determination (final DMSO conc in the assay was 1%). All the measurements were carried out using the Spectramax M5, Molecular devices. The compounds were screened at 1 and 10 μM concentration and IC50 was determined for the interested compounds.
To determine IC50 values, dose response curves were generated by plotting percentage inhibition as a function of inhibitor concentration and the data was fitted to sigmoidal non-linear regression equation (variable slope) using Graph Pad prism software V7.

The term inhibition denotes how much of the control response was suppressed. On to `N=C(N)c1ccc2cc(C(=O)N[C@@H]3CCNC3)n(Cc3cccc4ccccc34)c2c1` [Compound I-433], for which the inhibition at 1 µM was in the range of 75 to 100%. Turning to `CCOC(=O)N1CCC(NC(=O)c2cc3ccc(C(=N)N)cc3n2Cc2cccc3ccccc23)CC1` [Compound I-434], the inhibition at 1 µM fell in the range of 75 to 100%. Still for that read-out and setting: under `N=C(N)c1ccc2cc(C(=O)NCc3ccc(CO)cc3)n(Cc3cccc4ccccc34)c2c1` [Compound I-435] stands 50 to 75%; under `CC1(O)CCC(NC(=O)c2cc3ccc(C(=N)N)cc3n2Cc2cccc3ccccc23)CC1` (stereo not shown) [Compound I-436], 50 to 75%.

`N=C(N)c1ccc2cc(C(N)=O)n(Cc3cccc4ccccc34)c2c1` [Compound I-437]: the inhibition at 1 µM fell in the range of 75 to 100%. Consider `N=C(N)c1ccc2cc(C(=O)NC3CCCCC3)n(Cc3cccc4ccccc34)c2c1` [Compound I-438], for which the inhibition at 1 µM lay in the range of 25 to 50%.

Take `N=C(N)c1ccc2cc(C(=O)N[C@H]3CC[C@@H](N)CC3)n(Cc3cccc4ccccc34)c2c1` [Compound I-439]: the inhibition at 1 µM fell in the range of 75 to 100%. On to `N=C(N)c1ccc2cc(C(=O)N[C@H]3CC[C@H](O)CC3)n(Cc3cccc4ccccc34)c2c1` [Compound I-440], for which the inhibition at 1 µM was in the range of 75 to 100%. The same measure, in the same setting: the value for `N=C(N)c1ccc2cc(C(=O)N3CC[C@@H](O)C3)n(Cc3cccc4ccccc34)c2c1` [Compound I-441] was 25 to 50%. In the case of `N=C(N)c1ccc2cc(C(=O)N3CCCNCC3)n(Cc3cccc4ccccc34)c2c1` [Compound I-442], the inhibition at 1 µM was 50 to 75%. The same measure, in the same setting: under `CN1CCN(C(=O)c2cc3ccc(C(=N)N)cc3n2Cc2cccc3ccccc23)CC1` [Compound I-443] stands 0 to 25%.

With `N=C(N)c1ccc2cc(C(=O)N3CCC(CO)CC3)n(Cc3cccc4ccccc34)c2c1` [Compound I-444], the inhibition at 1 µM lay within 25 to 50%.

On to `N=C(N)c1ccc2cc(C(=O)NC3CCCNC3)n(Cc3cccc4ccccc34)c2c1` (stereo not shown) [Compound I-445], for which the inhibition at 1 µM lay in the range of 75 to 100%. Still for that read-out and setting: the value for `N=C(N)c1ccc2cc(C(=O)N3CC[C@@H](N)C3)n(Cc3cccc4ccccc34)c2c1` [Compound I-446] was 50 to 75%. On the same count and under the same terms, the value for `N=C(N)c1ccc2cc(C(=O)Nc3ccc(N4CCC(F)C4)cc3)n(Cc3cccc4ccccc34)c2c1` (stereo not shown) [Compound I-447] was 25 to 50%. The same measure, in the same setting: under `N=C(N)c1ccc2cc(C(=O)Nc3cccc(-c4ncc[nH]4)c3)n(Cc3cccc4ccccc34)c2c1` [Compound I-448] stands 25 to 50%; under `CN1CC[C@@H](NC(=O)c2cc3ccc(C(=N)N)cc3n2Cc2cccc3ccccc23)C1` [Compound I-450], 75 to 100%; under `CN(C(=O)c1cc2ccc(C(=N)N)cc2n1Cc1cccc2ccccc12)[C@H]1CC[C@H](N)CC1` [Compound I-451], 50 to 75%. In the case of `N=C(N)c1ccc2cc(C(=O)NCCCCN)n(Cc3cccc4ccccc34)c2c1` [Compound I-452], the inhibition at 1 µM lay in the range of 75 to 100%. Still for that read-out and setting: the value for `N=C(N)c1ccc2cc(C(=O)N(CCO)C3CCC(N)CC3)n(Cc3cccc4ccccc34)c2c1` (stereo not shown) [Compound I-453] was 50 to 75%; that for `N=C(N)c1ccc2cc(C(=O)N3CC4CC3CN4)n(Cc3cccc4ccccc34)c2c1` (stereo not shown) [Compound I-454] was 75 to 100%; that for `NC(=O)c1ccc2cc(C(=O)NC3CCNCC3)n(Cc3cccc4ccccc34)c2c1` [Compound I-455, 1-(naphthalen-1-ylmethyl)-N2-(piperidin-4-yl)-1H-indole-2,6-dicarboxamide] was 0 to 25%. The same measure, in the same setting: the value for `NC(=O)c1ccc2cc(C(=O)N[C@@H]3CCNC3)n(Cc3cccc4ccccc34)c2c1` [Compound I-456] was 0 to 25%; that for `CN1CCC(NC(=O)c2cc3ccc(C(N)=O)cc3n2Cc2cccc3ccccc23)CC1` [Compound I-457] was 0 to 25%. The same measure, in the same setting: the value for `N=C(N)c1ccc2cc(C(=O)O)n(Cc3cccc4ccccc34)c2c1` [Compound I-458, 6-carbamimidoyl-1-(naphthalen-1-ylmethyl)-1H-indole-2-carboxylic Acid] was 75 to 100%. Turning to `N=C(N)c1ccc2cc(C(=O)O)n(Cc3ccc4ccccc4c3)c2c1` [Compound I-459], the inhibition at 1 µM was 25 to 50%.

With `CN1CCC(CNC(=O)c2cc3ccc(C(=N)N)cc3n2Cc2cccc3ccccc23)CC1` [Compound I-460, 6-carbamimidoyl-N-((1-methylpiperidin-4-yl)methyl)-1-(naphthalen-1-ylmethyl)-1H-indole-2-carboxamide], the inhibition at 1 µM fell in the range of 75 to 100%. The same measure, in the same setting: under `N=C(N)c1ccc2cc(C(=O)Nc3cccc(N4CCCC4)n3)n(Cc3cccc4ccccc34)c2c1` [Compound I-461] stands 25 to 50%; under `N=C(N)c1ccc2cc(C(=O)NC3CCC(N4CCCC4)CC3)n(Cc3cccc4ccccc34)c2c1` (stereo not shown) [Compound I-462], 75 to 100%. Still for that read-out and setting: under `N=C(N)c1ccc2cc(C(=O)NC3CCOCC3)n(Cc3cccc4ccccc34)c2c1` [Compound I-463] stands 50 to 75%; under `N=C(N)c1ccc2cc(C(=O)NCC3(C(N)=O)CCCCC3)n(Cc3cccc4ccccc34)c2c1` [Compound I-464], 50 to 75%. With `N=C(N)c1ccc2cc(C(=O)NCCN)n(Cc3cccc4ccccc34)c2c1` [Compound I-465], the inhibition at 1 µM was 75 to 100%. Same read-out and setting: the value for `N=C(N)c1ccc2cc(C(=O)NCCCN)n(Cc3cccc4ccccc34)c2c1` [Compound I-466] was 75 to 100%; that for `N=C(N)c1ccc2cc(C(=O)NC3CCCC(N)C3)n(Cc3cccc4ccccc34)c2c1` (stereo not shown) [Compound I-467] was 75 to 100%. On the same count and under the same terms, under `N=C(N)c1ccc2cc(C(=O)N3CCOCC3)n(Cc3cccc4ccccc34)c2c1` [Compound I-468] stands 25 to 50%; under `CN(C)[C@H]1CC[C@H](NC(=O)c2cc3ccc(C(=N)N)cc3n2Cc2cccc3ccccc23)CC1` [Compound I-469], 75 to 100%. Same read-out and setting: under `CN(C)[C@H]1CC[C@@H](NC(=O)c2cc3ccc(C(=N)N)cc3n2Cc2cccc3ccccc23)CC1` [Compound I-470] stands 75 to 100%; under `COC(=O)[C@H]1CC[C@H](NC(=O)c2cc3ccc(C(=N)N)cc3n2Cc2cccc3ccccc23)CC1` [Compound I-471], 25 to 50%; under `CN[C@H]1CC[C@H](NC(=O)c2cc3ccc(C(=N)N)cc3n2Cc2cccc3ccccc23)CC1` [Compound I-472], 75 to 100%.

In the case of `N=C(N)c1ccc2cc(C(=O)N[C@H]3CC[C@H](C(=O)O)CC3)n(Cc3cccc4ccccc34)c2c1` [Compound I-473], the inhibition at 1 µM fell in the range of 25 to 50%. Consider `N=C(N)c1ccc2cc(C(=O)NCC3(CN)CCCCC3)n(Cc3cccc4ccccc34)c2c1` [Compound I-474], for which the “Mar-2 % inhibition at 1 uM” value is given as “D (D represents 75%≤I≤100%)”. In the case of `N=C(N)c1ccc2cc(C(=O)NC3CCNC(=O)C3)n(Cc3cccc4ccccc34)c2c1` (stereo not shown) [Compound I-477], the inhibition at 1 µM was in the range of 50 to 75%. Still for that read-out and setting: the value for `N=C(N)c1ccc2cc(C(=O)NCCCN3CCCCC3)n(Cc3cccc4ccccc34)c2c1` [Compound I-478] was 75 to 100%.

As to `CC1CCCCN1CCCNC(=O)c1cc2ccc(C(=N)N)cc2n1Cc1cccc2ccccc12` (stereo not shown) [Compound I-479], the “Mar-2 % inhibition at 1 uM” value is “C (C represents 50%≤I≤75%)”. Consider `N=C(N)c1ccc2cc(C(=O)NC3CC4CC3CN4)n(Cc3cccc4ccccc34)c2c1` (stereo not shown) [Compound I-480], for which the inhibition at 1 µM was 75 to 100%. With `N=C(N)c1ccc2cc(C(=O)NCCN3CCCCC3)n(Cc3cccc4ccccc34)c2c1` [Compound I-481], the inhibition at 1 µM lay in the range of 75 to 100%.

In the case of `CN(C)C(=O)c1cc2ccc(C(=N)N)cc2n1Cc1cccc2ccccc12` [Compound I-482], the “Mar-2 % inhibition at 1 uM” value is given as “B (B represents 25%≤I≤50%)”.

Regarding `CNC(=O)c1cc2ccc(C(=N)N)cc2n1Cc1cccc2ccccc12` [Compound I-483], the “Mar-2 % inhibition at 1 uM” value is “C (C represents 50%≤I≤75%)”. Regarding `N=C(N)c1ccc2cc(C(=O)NS(=O)(=O)C3CC3)n(Cc3cccc4ccccc34)c2c1` [Compound I-484], the inhibition at 1 µM was in the range of 25 to 50%.
